Results as given in PMC7782499, “Progerinin, an optimized progerin-lamin A binding inhibitor, ameliorates premature senescence phenotypes of Hutchinson-Gilford progeria syndrome” (Communications Biology, 2021).
Where “and” joins values, the source holds several entries; their conditions need not be identical. Equal values may be shown once.

Test system: Lmna G609G/+ mouse
Assay: Body weight of Lmna G609G/+ mice
Format: in vivo
Settings: for Lmna G609G/+ body weight, Ave: group average; for Lmna G609G/+ body weight: individual mouse
Text: Fig. 3 In vivo favorable effect of SLC-D011. A Gross morphology of Lmna^G609G/G609G mice (10 weeks old) was ameliorated after injection with SLC-D011. At the same age, the experimental group (D011) of mice were larger than vehicle-injected control (Con) subjects regardless of gender. B, C SLC-D011 increases body weight B and extends life span C of Lmna^G609G/G609G progeria model mouse (Con: n = 8; SLC-D011: n = 8). Compared with 14.8 weeks of average (ave) life span with maximum (max) life span of 15.5 weeks, 20 mg/kg of intraperitoneal (i.p) injection (twice a week) of SLC-D011 could extend the life span upto 19 weeks (max = 21 weeks). Lmna^G609G/G609G mice were injected with SLC-D011 from age of 5-week old, *p < 0.05. D Gross morphology of SLC-D011 injected Lmna^G609G/+ mouse. […] E SLC-D011 increases body weights of Lmna^G609G/+ mice (Con: n = 10; SLC-D011: n = 11), *p < 0.05. F Favorable effect of SLC-D011 on life span of Lmna^G609G/+ mice. Compared with vehicle-injected control group (ave = 46.7 weeks and max = 48 weeks), SLC-D011 treatment obviously extended the average life span to 63 weeks (max = 64 weeks). The injection was started from 32 weeks old, **p < 0.001. “Con” means vehicle (a solvent composed of DMSO and PBS)-injected mouse group. TEXT PRINTED IN THE PICTURE: (C) D011: Kaplan-Meier survival curve in Lmna^G609G/G609G: Ave=19; Kaplan-Meier survival curve in Lmna^G609G/G609G: Max=21 | (F) D011: Kaplan-Meier survival curve in Lmna^G609G/+: Ave=63; Kaplan-Meier survival curve in Lmna^G609G/+: Max=64 DOUBTS OF THE COPYIST ABOUT THIS PICTURE: Panels C and F: the Ave/Max labels are not printed with a group name. They are assigned to D011 (solid curve) or Con (dashed curve) only by their position beside the curves. / Panel C Ave=14.8, Max=15.5 and panel F Ave=46.7, Max=48 stand beside the dashed Con curve. They are left out because Con is the control group, not a substance. / No unit is printed with the Ave/Max values. Only the axis reads Age (weeks).
Animal experiments were performed in a facility certified by the Association for Assessment and Accreditation of Laboratory Animal Care in compliance with animal policies approved by Pusan National University. The mouse work was performed under the study protocol PNU-2019-2181, as approved by the Institutional Animal Care and Use Committee. Lmna^G609G/609G mice were generated by timed mating of heterozygous Lmna^G609G/+ provided by Carlos López-Otín (Universidad de Oviedo, Asturias, Oviedo, Spain). SLC-D011 was mixed with dimethyl sulfoxide (DMSO) and phosphate-buffered saline (PBS). It was then intraperitoneally injected into mice (20 mg/kg twice per week from 5-week-old). SLC-D011 and lonafarnib were orally administrated to mice daily at a concentration of 10 mg/ml in monoolein-based solution. Lonafarnib was generously provided by Merck, the Progeria Research Foundation (PRF) and the PRF Lonafarnib Pre-clinical Drug Supply Program. Control mice were treated with monoolein-based solution alone in the same way. Lmna^G609G/609G mice were treated with clear chemical solution throughout the life span, starting from 5 weeks of age. Lmna^G609G/+ mice were treated via intraperitoneal and oral administrations, starting from 32 weeks of age.
Fig. S10. Or al administration of SLC-D011 suppresses premature aging features of LmnaG609G/+ mi c e . A.
Gross morphology of SLC-D011 treated Lmna G609G/+ mice at 36 weeks old. B. Oral administration of SLC-
D011 increases body weight s of LmnaG609G/+ mi c e (untreated: n=11; SLC-D011: n=12), * p<0.05. C. […]
intensity of H3K9me3 levels in lung, liver, and kidney tissues of age-matched Lmn a +/+ mouse, untreated
LamnG609G/+ mouse and two progerinin- treated LmnaG609G/+ mice (n = 2 independent experiments; one
Student’s t -test), **p < 0.001,*p< 0.05, N.S: not significant .AU, arbitrary units.
Fig. S12. […] A. SLC-D011, compar ed to lonafarnib, reduces […]

[1] = column after week 64 (head empty), IP injection with SLC-D011, ratio to week 32
[2] = week 32, IP injection with SLC-D011, ratio to week 32
[3] = week 33, IP injection with SLC-D011, ratio to week 32
[4] = week 34, IP injection with SLC-D011, ratio to week 32
[5] = week 35, IP injection with SLC-D011, ratio to week 32
[6] = week 36, IP injection with SLC-D011, ratio to week 32
[7] = week 37, IP injection with SLC-D011, ratio to week 32
[8] = week 38, IP injection with SLC-D011, ratio to week 32
[9] = week 39, IP injection with SLC-D011, ratio to week 32
[10] = week 40, IP injection with SLC-D011, ratio to week 32
[11] = week 41, IP injection with SLC-D011, ratio to week 32
[12] = week 42, IP injection with SLC-D011, ratio to week 32
[13] = week 43, IP injection with SLC-D011, ratio to week 32
[14] = week 44, IP injection with SLC-D011, ratio to week 32
[15] = week 45, IP injection with SLC-D011, ratio to week 32
[16] = week 46, IP injection with SLC-D011, ratio to week 32
[17] = week 47, IP injection with SLC-D011, ratio to week 32
[18] = week 48, IP injection with SLC-D011, ratio to week 32
[19] = week 49, IP injection with SLC-D011, ratio to week 32
[20] = week 50, IP injection with SLC-D011, ratio to week 32
[21] = week 51, IP injection with SLC-D011, ratio to week 32
[22] = week 52, IP injection with SLC-D011, ratio to week 32
[23] = week 53, IP injection with SLC-D011, ratio to week 32
[24] = week 54, IP injection with SLC-D011, ratio to week 32
[25] = week 55, IP injection with SLC-D011, ratio to week 32
[26] = week 56, IP injection with SLC-D011, ratio to week 32
[27] = week 57, IP injection with SLC-D011, ratio to week 32
[28] = week 58, IP injection with SLC-D011, ratio to week 32
[29] = week 59, IP injection with SLC-D011, ratio to week 32
[30] = week 60, IP injection with SLC-D011, ratio to week 32
[31] = week 61, IP injection with SLC-D011, ratio to week 32
[32] = week 62, IP injection with SLC-D011, ratio to week 32
[33] = week 63, IP injection with SLC-D011, ratio to week 32
[34] = week 64, IP injection with SLC-D011, ratio to week 32

## CC1(C)Oc2cc3oc(=O)ccc3cc2C[C@@H]1OC/C=C/c1ccccc1 [SLC-D011]
[1]
  Lmna G609G/+ body weight, Ave: 0
  Lmna G609G/+ body weight: 0
Oral administration, week 36, relative body weight
  Lmna G609G/+ body weight, Ave: 1
Oral administration, week 38, relative body weight
  Lmna G609G/+ body weight, Ave: 1.017
Oral administration, week 40, relative body weight
  Lmna G609G/+ body weight, Ave: 1.063
Oral administration, week 42, relative body weight
  Lmna G609G/+ body weight, Ave: 0.9995
Oral administration, week 44, relative body weight
  Lmna G609G/+ body weight, Ave: 0.9298
Oral administration, week 46, relative body weight
  Lmna G609G/+ body weight, Ave: 0.9013
Oral administration, week 48, relative body weight
  Lmna G609G/+ body weight, Ave: 0.862
Oral administration, week 50, relative body weight
  Lmna G609G/+ body weight, Ave: 0.8331
Oral administration, week 52, relative body weight
  Lmna G609G/+ body weight, Ave: 0.7877
Oral administration, week 54, relative body weight
  Lmna G609G/+ body weight, Ave: 0.7841
Oral administration, week 56, relative body weight
  Lmna G609G/+ body weight, Ave: 0.7247
Oral administration, week 58, relative body weight
  Lmna G609G/+ body weight, Ave: 0.7038
Oral administration, week 60, relative body weight
  Lmna G609G/+ body weight, Ave: 0.6602
Oral administration, week 62, relative body weight
  Lmna G609G/+ body weight, Ave: 0.5992
Oral administration, week 64, relative body weight
  Lmna G609G/+ body weight, Ave: 0.3905
Oral administration, week 66, relative body weight
  Lmna G609G/+ body weight, Ave: 0
[2]
  Lmna G609G/+ body weight, Ave: 1
  Lmna G609G/+ body weight: 1
[3]
  Lmna G609G/+ body weight, Ave: 1.01
  Lmna G609G/+ body weight: 1 and 1.038
[4]
  Lmna G609G/+ body weight, Ave: 1.003
  Lmna G609G/+ body weight: 1 and 0.9583 and 1.038
[5]
  Lmna G609G/+ body weight, Ave: 0.9948
  Lmna G609G/+ body weight: 1 and 0.9167 and 1.038
[6]
  Lmna G609G/+ body weight, Ave: 0.9886
  Lmna G609G/+ body weight: 1 and 0.9583
[7]
  Lmna G609G/+ body weight, Ave: 0.9733
  Lmna G609G/+ body weight: 1 and 0.9167
[8]
  Lmna G609G/+ body weight, Ave: 0.9619
  Lmna G609G/+ body weight: 0.9565 and 0.9167 and 1
[9]
  Lmna G609G/+ body weight, Ave: 0.9549
  Lmna G609G/+ body weight: 0.9565 and 0.9167 and 0.9615
[10]
  Lmna G609G/+ body weight, Ave: 0.925
  Lmna G609G/+ body weight: 0.913 and 0.875 and 0.9615 and 0.963
[11]
  Lmna G609G/+ body weight, Ave: 0.925
  Lmna G609G/+ body weight: 0.913 and 0.875 and 0.9615 and 0.963
[12]
  Lmna G609G/+ body weight, Ave: 0.9069
  Lmna G609G/+ body weight: 0.913 and 0.8333 and 0.9231 and 0.963
[13]
  Lmna G609G/+ body weight, Ave: 0.9077
  Lmna G609G/+ body weight: 0.913 and 0.875 and 0.9231 and 0.9259
[14]
  Lmna G609G/+ body weight, Ave: 0.8732
  Lmna G609G/+ body weight: 0.8696 and 0.7917 and 0.9231 and 0.9259
[15]
  Lmna G609G/+ body weight, Ave: 0.8778
  Lmna G609G/+ body weight: 0.8696 and 0.8333 and 0.9231 and 0.8889
[16]
  Lmna G609G/+ body weight, Ave: 0.8769
  Lmna G609G/+ body weight: 0.8696 and 0.7917 and 0.9615 and 0.8889
[17]
  Lmna G609G/+ body weight, Ave: 0.8478
  Lmna G609G/+ body weight: 0.8261 and 0.7917 and 0.9231 and 0.8519
[18]
  Lmna G609G/+ body weight, Ave: 0.8359
  Lmna G609G/+ body weight: 0.8261 and 0.75 and 0.9231 and 0.8519
[19]
  Lmna G609G/+ body weight, Ave: 0.8036
  Lmna G609G/+ body weight: 0.7826 and 0.75 and 0.8846 and 0.7778
[20]
  Lmna G609G/+ body weight, Ave: 0.8111
  Lmna G609G/+ body weight: 0.7826 and 0.7917 and 0.8846 and 0.7778
[21]
  Lmna G609G/+ body weight, Ave: 0.8111
  Lmna G609G/+ body weight: 0.7826 and 0.7917 and 0.8846 and 0.7778
[22]
  Lmna G609G/+ body weight, Ave: 0.7901
  Lmna G609G/+ body weight: 0.7826 and 0.75 and 0.8462
[23]
  Lmna G609G/+ body weight, Ave: 0.7931
  Lmna G609G/+ body weight: 0.7826 and 0.7917 and 0.8462
[24]
  Lmna G609G/+ body weight, Ave: 0.7747
  Lmna G609G/+ body weight: 0.7391 and 0.7917 and 0.8077
[25]
  Lmna G609G/+ body weight, Ave: 0.7712
  Lmna G609G/+ body weight: 0.7391 and 0.7917 and 0.8077
[26]
  Lmna G609G/+ body weight, Ave: 0.7636
  Lmna G609G/+ body weight: 0.7391 and 0.75 and 0.8077
[27]
  Lmna G609G/+ body weight, Ave: 0.7611
  Lmna G609G/+ body weight: 0.7391 and 0.75 and 0.8077
[28]
  Lmna G609G/+ body weight, Ave: 0.746
  Lmna G609G/+ body weight: 0.6957 and 0.6667 and 0.8077
[29]
  Lmna G609G/+ body weight, Ave: 0.6892
  Lmna G609G/+ body weight: 0.7391 and 0 and 0.8077
[30]
  Lmna G609G/+ body weight, Ave: 0.6894
  Lmna G609G/+ body weight: 0.6957 and 0.7692
[31]
  Lmna G609G/+ body weight, Ave: 0.6156
  Lmna G609G/+ body weight: 0.6087 and 0.7692
[32]
  Lmna G609G/+ body weight, Ave: 0.5947
  Lmna G609G/+ body weight: 0 and 0.6923
[33]
  Lmna G609G/+ body weight, Ave: 0.5548
  Lmna G609G/+ body weight: 0.6923
[34]
  Lmna G609G/+ body weight, Ave: 0.2637
  Lmna G609G/+ body weight: 0.6154
